Test results reported in US11124510B2, “Alkyl chain modified imidazoquinoline TLR7/8 agonist compounds and uses thereof” (Dynavax Technologies Corporation, priority 2017, dated 2021).

Key:
TLR7 = TLR7 (Homo sapiens (Human), UniProt Q9NYK1); experiment: TLR7 agonist bioactivity: induction of IFNα protein in pDC-enriched PBMC cultures (ELISA, 24 h); assay type: cell-based; settings: less potent than IMDQ
TLR8 = TLR8 (Homo sapiens (Human), UniProt Q9NR97); experiment: TLR8 agonist bioactivity: induction of TNFα protein in monocyte cultures (ELISA, 24 h); assay type: cell-based
Description: Monocytes were magnetically isolated from PBMCs, prepared as described above, following labeling with CD14 microbeads (Miltenyi Biotec, San Diego Calif.), according to the manufacturer's instructions. […] Culture supernatants were collected and tumor necrosis factor alpha (TNFα) protein levels were measured by ELISA (MabTech, Cincinnati Ohio), according to the manufacturer's instructions.

serum IL-6 and IL-12p40 = experiment: In vivo systemic immune activation assay: serum IL-6 and IL-12p40 by ELISA after single subcutaneous injection; design: species or system mice; settings: for serum IL-6 / serum IL-12p40: 5 μg subcutaneously in footpad, 95% sesame oil/5% ethanol, ± SEM
Description: Small molecule TLR7 and TLR7/8 agonists derived from the 1H-imidazo[4,5-c]quinoline privileged template (see e.g., Imiquimod, Resiquimod) are known to rapidly distribute to the systemic compartment following intratumoral, subcutaneous, or intramuscular injection. Broad systemic distribution of these agonist compounds in wild-type mice induces TLR7-dependent cytokine responses, primarily in spleen and liver cells, which can subsequently be detected in the serum within 3-6 hours. The rapid increase in serum cytokine biomarkers (e.g., IL-6 and IL-12p40) can be used to assess the kinetics of systemic distribution of a locally administered TLR agonist.
The kinetics of distribution of pharmaceutical compositions comprised of Compound Nos. 63-00, 63-17, or 63-10 formulated in 95% sesame oil/5% ethanol (v/v) were assessed following a single subcutaneous injection in wild-type mice. All in vivo procedures were conducted in accordance with approved Institutional Animal Care and Use Committee (IACUC) protocols. The animals were housed in a facility that is accredited by the Association for Accreditation and Laboratory Animal Care (AALAC, Frederick Md.). Wild-type female BALB/c mice (15-20 gm) were obtained from Envigo (Hayward, Calif.) and acclimated for 2-3 days prior to use.
The pharmaceutical compositions were made with the three compounds, at a final concentration of 200 μg/mL, in a manner similar to that described in Example B2-1. At T=0, groups of 3 mice were anesthetized with 1% isoflurane and injected subcutaneously in the right footpad with 5 μg of each of the three compounds, or a vehicle control, in 25 uL of 95% sesame oil/5% ethanol (v/v). Then, at T=3, 6, and 24 hours, three animals from each group were anesthetized with 1% isoflurane to facilitate blood collection by cardiac puncture. Samples were processed to serum, and stored at −20° C. for further analysis.

CT26 colon carcinoma = experiment: Anti-tumor efficacy in combination with anti-PD-1 antibody in dual flank CT26 colon carcinoma-bearing mice; assay type: in vivo; settings: 5,000 ng single intratumoral dose day 14, in combination with anti-PD-1
Description: All in vivo procedures were conducted in accordance with approved IACUC protocols. The animals were housed in a facility that is accredited by the AALAC. Wild-type female Balb/c mice (15-20 g) were obtained from Envigo (Hayward, Calif.) and acclimated for 2-3 days prior to use.
The pharmaceutical compositions were made using Compound No. 63-10 or 63-33 at final concentrations of 50,000 ng/mL in a manner similar to that described for Example B2-1. […] On day 0, mice were anesthetized with 1% isoflurane, and 80,000 CT26 tumor cells in 200 uL of RMPI-1640 culture media plus 2.5% fetal bovine serum were injected subcutaneously in both the right and left flanks. Tumors (left and right) were allowed to grow until day 8, when the right and left flank tumor sizes had reached approximately 35 mm^3, at which point mice were injected intraperitoneally with 250 μg of anti-PD-1 antibody formulated in phosphate buffered saline or a phosphate buffered saline vehicle control. The anti-PD-1 treatments were repeated on experimental days 12, 15, 19, 22, and 26. On experimental day 14, when the right (injected) and left (distal) flank tumors had reached approximately 100 mm^3, mice were randomized into treatment groups. […] Tumor sizes were measured twice weekly from days 14 through day 29 with calipers, with tumor volumes calculated using the formula: length, multiplied by width, multiplied by width, divided by 2.

TLR8, sequence (Q9NR97 27-1041): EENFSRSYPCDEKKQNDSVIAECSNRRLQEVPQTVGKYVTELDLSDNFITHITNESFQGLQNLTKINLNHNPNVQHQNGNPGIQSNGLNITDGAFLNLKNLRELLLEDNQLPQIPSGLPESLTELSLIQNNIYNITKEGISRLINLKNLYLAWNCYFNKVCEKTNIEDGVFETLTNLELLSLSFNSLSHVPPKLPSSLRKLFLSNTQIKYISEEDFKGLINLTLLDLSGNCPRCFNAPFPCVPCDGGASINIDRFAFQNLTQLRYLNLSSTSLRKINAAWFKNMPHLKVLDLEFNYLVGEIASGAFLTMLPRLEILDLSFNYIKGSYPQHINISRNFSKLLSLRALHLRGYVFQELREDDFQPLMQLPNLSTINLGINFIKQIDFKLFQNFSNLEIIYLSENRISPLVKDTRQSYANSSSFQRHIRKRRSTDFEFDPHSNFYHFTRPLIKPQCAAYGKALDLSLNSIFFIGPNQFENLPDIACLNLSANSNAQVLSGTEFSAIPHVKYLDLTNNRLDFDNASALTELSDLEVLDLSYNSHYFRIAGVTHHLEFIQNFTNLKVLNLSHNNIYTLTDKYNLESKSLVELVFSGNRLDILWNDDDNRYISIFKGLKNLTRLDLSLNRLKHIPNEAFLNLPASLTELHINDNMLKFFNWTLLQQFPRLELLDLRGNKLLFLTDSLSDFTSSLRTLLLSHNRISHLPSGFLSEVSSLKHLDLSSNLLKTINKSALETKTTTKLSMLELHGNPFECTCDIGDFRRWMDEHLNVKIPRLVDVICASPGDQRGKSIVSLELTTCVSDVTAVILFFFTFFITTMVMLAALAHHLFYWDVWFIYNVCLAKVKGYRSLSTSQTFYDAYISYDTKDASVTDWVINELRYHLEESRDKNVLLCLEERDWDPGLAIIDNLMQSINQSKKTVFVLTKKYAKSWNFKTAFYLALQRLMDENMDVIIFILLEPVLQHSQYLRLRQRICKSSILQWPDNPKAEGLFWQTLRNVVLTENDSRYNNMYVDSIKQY
TLR7, sequence (Q9NYK1 27-1049): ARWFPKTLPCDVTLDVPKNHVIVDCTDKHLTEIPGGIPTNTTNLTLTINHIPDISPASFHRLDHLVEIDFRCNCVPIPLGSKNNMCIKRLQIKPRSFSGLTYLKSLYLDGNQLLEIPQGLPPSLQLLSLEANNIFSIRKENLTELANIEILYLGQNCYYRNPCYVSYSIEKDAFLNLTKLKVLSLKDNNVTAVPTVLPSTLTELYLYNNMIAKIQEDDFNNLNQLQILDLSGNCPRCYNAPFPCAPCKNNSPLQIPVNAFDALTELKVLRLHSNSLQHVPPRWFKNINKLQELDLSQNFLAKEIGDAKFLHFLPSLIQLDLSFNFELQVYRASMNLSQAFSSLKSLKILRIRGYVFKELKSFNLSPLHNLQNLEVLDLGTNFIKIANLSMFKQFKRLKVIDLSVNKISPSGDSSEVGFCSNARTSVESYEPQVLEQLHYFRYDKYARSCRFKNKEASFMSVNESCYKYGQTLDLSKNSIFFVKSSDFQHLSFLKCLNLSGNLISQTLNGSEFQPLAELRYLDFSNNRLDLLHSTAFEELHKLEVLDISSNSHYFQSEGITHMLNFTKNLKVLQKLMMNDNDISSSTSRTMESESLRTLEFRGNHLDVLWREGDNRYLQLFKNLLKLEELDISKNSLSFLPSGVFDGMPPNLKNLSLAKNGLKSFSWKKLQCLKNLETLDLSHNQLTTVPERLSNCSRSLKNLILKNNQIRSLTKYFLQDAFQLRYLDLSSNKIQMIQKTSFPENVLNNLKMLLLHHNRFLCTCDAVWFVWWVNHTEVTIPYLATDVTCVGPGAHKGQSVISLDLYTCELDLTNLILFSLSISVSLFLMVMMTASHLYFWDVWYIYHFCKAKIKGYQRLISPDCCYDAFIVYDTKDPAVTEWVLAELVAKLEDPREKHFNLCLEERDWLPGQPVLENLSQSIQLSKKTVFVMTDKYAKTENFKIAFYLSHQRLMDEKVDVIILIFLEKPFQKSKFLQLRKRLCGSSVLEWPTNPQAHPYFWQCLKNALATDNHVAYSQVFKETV

- fold loss of TLR7 agonist potency compared to Compound No. 63-00 (IMDQ) (TLR7): 2 fold
- EC50 (TLR8; TNFα induction, human monocytes, 24 hours): 522 nM
- fold loss of TLR8 agonist potency compared to Compound No. 63-00 (IMDQ) (TLR8; less potent than IMDQ): 2.4 fold
SMILES: CCCCCCCCCCCCCC(=O)NCc1ccc(Cn2c(CCCC)nc3c(N)nc4ccccc4c32)cc1 [Compound No. 63-10, N-(4-((4-amino-2-butyl-1H-imidazo[4,5-c]quinolin-1-yl)methyl)benzyl)tetradecanamide]
- serum IL-6 (serum IL-6 and IL-12p40; 3 hours): 49 ± 32 pg/mL
- serum IL-12p40 (serum IL-6 and IL-12p40; 3 hours): 1,012±246 pg/mL
- serum IL-6 (serum IL-6 and IL-12p40; 6 hours): 33 ± 4 pg/mL
- serum IL-12p40 (serum IL-6 and IL-12p40; 6 hours): 2,179±597 pg/mL
- serum IL-6 (serum IL-6 and IL-12p40; 24 hours): 32 ± 2 pg/mL
- serum IL-12p40 (serum IL-6 and IL-12p40; 24 hours): 2,436±237 pg/mL
- increase in serum cytokines (serum IL-6 and IL-12p40; at 3, 6, or 24 hours, 5 μg subcutaneously): no detectable increase
- tumor growth inhibition in the injected tumor (right flank) compared to the anti-PD-1 treatment alone (CT26 colon carcinoma): greater tumor growth inhibition
- tumor growth inhibition in the distal tumor (left flank) compared to the anti-PD-1 treatment alone (CT26 colon carcinoma; day 29): no improvement
